Test results from ChEMBL document CHEMBL1681755, “Antiviral agents 3. Discovery of a novel small molecule non-nucleoside inhibitor of hepatitis B virus (HBV)” (Bioorg Med Chem Lett, 2011).

What was measured:
Hepatitis B virus [1] = experiment: Antiviral activity against Hepatitis B virus infected in human HepG2(2.2.15) cells assessed as reduction in viral DNA by Southern blotting; format: functional, organism-based
[2] = Cytotoxicity against human HepG2(2.2.15) cells by neutral red dye uptake assay; format: functional
Huh-7 = experiment: Cytotoxicity against human HuH7 cells after 4 days by neutral red dye uptake assay; format: functional; settings: Huh-7, 96 h
Hepatitis B virus [3] = experiment: Antiviral activity against Hepatitis B virus infected in human HepG2 cells assessed as reduction in viral DNA after 3 days by Southern blotting; format: functional, organism-based; settings: HepG2, 72 h
HepG2 = experiment: Cytotoxicity against human HepG2 cells after 3 days by neutral red dye uptake assay; format: functional; settings: HepG2, 72 h
Hepatitis B virus [4] = experiment: Antiviral activity against Hepatitis B virus infected in human Huh7 cells assessed as reduction in viral DNA after 4 days by Southern blotting; settings: Huh-7, 96 h

| Compound | EC50 (Hepatitis B virus [1]) | CC50 [2] | CC50 (Huh-7) | EC50 (Hepatitis B virus [3]) | CC50 (HepG2) | EC50 (Hepatitis B virus [4]) |
| --- | --- | --- | --- | --- | --- | --- |
| Nc1nc(O)c2ncn(CCC(CO)CO)c2n1 [PENCICLOVIR] | 3.4 µM | 552 µM | – | – | – | – |
| CC1(C)C=Cc2c(ccc3c2C(=O)C=C(O)C3=O)O1 | 4.3 µM | > 300 µM | > 25 µM | 1.9 µM | > 25 µM | 2.5 µM |
| COc1ccc2c(c1)C(=O)C(C1=C(C3=C(O)C(=O)c4ccc(OC)cc4C3=O)C(=O)c3ccccc3C1=O)=C(O)C2=O | 56 µM | 295 µM | – | – | – | – |
| CC1(C)CCc2c(ccc3c2C(=O)C(O)=C(C2=C(C4=C(O)C(=O)c5c(ccc6c5CCC(C)(C)O6)C4=O)C(=O)c4c(ccc5c4CCC(C)(C)O5)C2=O)C3=O)O1 | 0.096 µM | 44 µM | – | – | – | – |
| COc1ccc2c(c1)C(=O)C(O)=C(C1=C(C3=C(O)C(=O)c4cc(OC)ccc4C3=O)C(=O)c3ccccc3C1=O)C2=O | 0.05 µM | 58 µM | – | – | – | – |
| CC1(C)C=Cc2c(ccc3c2C(=O)C(O)=C(C2=C(C4=C(O)C(=O)c5c(ccc6c5C=CC(C)(C)O6)C4=O)C(=O)c4c(ccc5c4C=CC(C)(C)O5)C2=O)C3=O)O1 | 7.9 µM | 45 µM | – | – | – | – |
| COc1cccc2c1C(=O)C(C1=C(C3=C(O)C(=O)c4cccc(OC)c4C3=O)C(=O)c3ccccc3C1=O)=C(O)C2=O | > 10 µM | > 300 µM | – | – | – | – |
| COc1cc2c(cc1OC)C(=O)C(C1=C(C3=C(O)C(=O)c4cc(OC)c(OC)cc4C3=O)C(=O)c3ccccc3C1=O)=C(O)C2=O | 0.4 µM | > 300 µM | – | – | – | – |
| CC1(C)CCc2c(ccc3c2C(=O)C(O)=C(C2=C(C4=C(O)C(=O)c5c(ccc6c5CCC(C)(C)O6)C4=O)C(=O)c4ccccc4C2=O)C3=O)O1 | 3.9 µM | 1430 µM | – | – | – | – |
| CC(C)Oc1ccc2c(c1)C(=O)C(C1=C(O)C(=O)c3c(ccc4c3C=CC(C)(C)O4)C1=O)=C(C1=C(O)C(=O)c3c(ccc4c3C=CC(C)(C)O4)C1=O)C2=O | 0.154 µM | > 300 µM | – | – | – | – |
| CC(C)=CCC[C@]1(C)C=Cc2c(ccc3c2C(=O)C(O)=C(C2=C(C4=C(O)C(=O)c5c(ccc6c5C=C[C@@](C)(CCC=C(C)C)O6)C4=O)C(=O)c4c(ccc5c4C=C[C@@](C)(CCC=C(C)C)O5)C2=O)C3=O)O1 [CONOCURVONE] | > 10 µM | > 100 µM | – | – | – | – |
| O=C1C(O)=C(C2=C(C3=C(O)C(=O)c4ccccc4C3=O)C(=O)c3ccccc3C2=O)C(=O)c2ccccc21 | > 10 µM | > 300 µM | – | – | – | – |
| Nc1ccn([C@@H]2CS[C@H](CO)O2)c(=O)n1 [LAMIVUDINE] | 0.06 µM | 2130 µM | 0.1 µM | > 2.5 µM | > 25 µM | 0.1 µM |
| CC1(C)C=Cc2c(ccc3c2C(=O)C(O)=C(C2=C(C4=C(O)C(=O)c5c(ccc6c5C=CC(C)(C)O6)C4=O)C(=O)c4ccccc4C2=O)C3=O)O1 | 10 µM | 1370 µM | – | – | – | – |
| COc1ccc2c(c1)C(=O)C(C1=C(O)C(=O)c3c(ccc4c3C=CC(C)(C)O4)C1=O)=C(C1=C(O)C(=O)c3c(ccc4c3C=CC(C)(C)O4)C1=O)C2=O | 1.5 µM | 466 µM | – | – | – | – |
| COc1ccc2c(c1)C(=O)C(O)=C(C1=C(C3=C(O)C(=O)c4cc(OC)ccc4C3=O)C(=O)c3c(ccc4c3CCC(C)(C)O4)C1=O)C2=O | 0.66 µM | > 300 µM | – | – | – | – |
| CC1(C)C=Cc2c(ccc3c2C(=O)C(O)=C(C2=C(C4=C(O)C(=O)c5c(ccc6c5C=CC(C)(C)O6)C4=O)C(=O)c4c(ccc5c4CCC(C)(C)O5)C2=O)C3=O)O1 | 0.009 µM | 279 µM | – | – | – | – |
| CC(C)=CCC[C@]1(C)C=Cc2c(ccc3c2C(=O)C(O)=C(C2=C(C4=C(O)C(=O)c5c(ccc6c5C=C[C@@](C)(CCC=C(C)C)O6)C4=O)C(=O)c4ccccc4C2=O)C3=O)O1 | > 10 µM | 14 µM | – | – | – | – |
